From patent publication US12018011B2, “Macrocyclic compounds and compositions, and methods of preparing and using the same” (Kura Oncology, Inc., priority 2021, dated 2024)

Assays:
T24/83 cells = test: T24/83 cell proliferation assay (CellTiter-Glo); type: cell-based; conditions: Homo sapiens, 96 h, 4 days
Source text: T24/83 cell line was purchased from the European Collection of Authenticated Cell Cultures (Salisbury, UK). Recombinant human farnesyl transferase (FTase) and geranylgeranyl transferase type-1 (GGTase) were obtained from Crelux (Martinsried, Germany). Dansyl labelled GCVLS peptide was purchased from Bachem (Torrance, CA), and Dansyl labelled GCVLL peptide was purchased from Bio Synthesis (Lewisville, TX). Farnesyl Pyrophosphate (FPP) and Geranylgeranyl pyrophosphate (GGPP) were purchased from Cayman (Ann Arbor, MI).
Mutant oncogenic HRAS was originally identified in a human bladder carcinoma cell line called T24. T24/83 is a subline of T24 established more recently that has more favorable growth characteristics for in vitro assays. Thus, T24/83 is a well-characterized mutant HRAS-dependent cell line that is an ideal model for quantifying the HRAS-dependent antitumor activity of farnesyltransferase inhibitors.
T24/83 cells were inoculated into 384 well plates at 100 cells/well, and grown in the presence of inhibitor, 0.7% DMSO as a negative control, or 100 μM tipifarnib as a positive control, at 37° C. for 4 days. Cell viability was assessed using the CellTiter-Glo Kit (CTG) (Promega; Madison, WI). Luminescence was recorded using EnVision microplate reader (PerkinElmer; Waltham, MA). In this assay, tipifarmib was used as a positive control. All the assay plates passed the QC criteria (S/B, Z-factor).

[1] = target: T1, Recombinant human farnesyl transferase (FTase) (Homo sapiens, UniProt P49356); test: FTase fluorescence assay (farnesylation of dansyl-GCVLS peptide); type: biochemical; conditions: recombinant human FTase 2.5 nM, Dansyl-GCVLS 85 nM, FPP 30 nM, 30° C., 50 minutes
T1 construct: purchased Crelux (Martinsried, Germany)

SMILES | IC50 (T24/83 cells) [nM] | IC50 [1] [nM]
Cn1cncc1C1(O)c2cccc(c2)CCc2cccc(c2)-c2cc(=O)n(C)c3ccc1cc23 (stereo not drawn) [Compound 2, 3-hydroxy-2^1-methyl-3-(1-methyl-1H-imidazol-5-yl)-2^1,2^2-dihydro-2(4,6)-quinolina-1,4(1,3)-dibenzenacyclohexaphan-2^2-one] | 50 to 500 | 10 to 100
COc1cc2c3cc(ccc3n1)C(O)(c1cncn1C)c1cnc(C#N)c(c1)COc1cccc-2c1 (stereo not drawn) [Compound 60, 3-hydroxy-2^2-methoxy-3-(1-methyl-1H-imidazol-5-yl)-6-oxa-2(4,6)-quinolina-4(3,5)-pyridina-1(1,3)-benzenacyclohexaphane-4^6-carbonitrile] | > 500 | 10 to 100
Cn1cncc1C1(O)c2ccc(C#N)c(c2)COc2cccc(c2)-c2cc(C#N)nc3ccc1cc23 (stereo not drawn) [Compound 72, 3-hydroxy-3-(1-methyl-1H-imidazol-5-yl)-6-oxa-2(4,6)-quinolina-1,4(1,3)-dibenzenacyclohexaphane-2^2 4^4-dicarbonitrile] | 50 to 500 | ≤ 10
Cn1cncc1C1(O)c2cccc(c2)OCCc2cccc(c2)-c2cc(=O)[nH]c3ccc1cc23 (stereo not drawn) [Compound 22, 3-hydroxy-3-(1-methyl-1H-imidazol-5-yl)-2^1,2^2-dihydro-5-oxa-2(4,6)-quinolina-1,4(1,3)-dibenzenacycloheptaphan-2^2-one] | 50 to 500 | 10 to 100
Cn1cncc1C1(N)c2ccc(C#N)c(c2)COc2cccc(c2)-c2cc(N3CCNCC3)nc3ccc1cc23 (stereo not drawn) [Compound 67, 3-amino-3-(1-methyl-1H-imidazol-5-yl)-2^2-(piperazin-1-yl)-6-oxa-2(4,6)-quinolina-1,4(1,3)-dibenzenacyclohexaphane-4^4-carbonitrile] |  | 10 to 100
Cn1cncc1C1(O)c2cccc(c2)CCOc2cccc(c2)-c2cc(=O)n(C)c3ccc1cc23 (stereo not drawn) [Compound 63, 3-hydroxy-2^1-methyl-3-(1-methyl-1H-imidazol-5-yl)-2^1,2^2-dihydro-7-oxa-2(4,6)-quinolina-1,4(1,3)-dibenzenacycloheptaphan-2^2-one] |  | 10 to 100
[2H]C([2H])([2H])n1c(=O)cc2c3cc(ccc31)C(O)(c1nncn1C)c1ccc(Cl)c(c1)OCCc1cccc-2c1 (stereo not drawn) [Compound 32, 4^4-chloro-3-hydroxy-2^1-(methyl-d3)-3-(4-methyl-4H-1,2,4-triazol-3-yl)-2^1,2^2-dihydro-5-oxa-2(4,6)-quinolina-1,4(1,3)-dibenzenacycloheptaphan-2^2-one] |  | 10 to 100
Cn1cncc1C1(O)c2ccc(C#N)c(c2)OCc2cccc(c2)-c2cc(=O)[nH]c3ccc1cc23 (stereo not drawn) [Compound 17, 3-hydroxy-3-(1-methyl-1H-imidazol-5-yl)-2^2-oxo-2^1,2^2-dihydro-5-oxa-2(4,6)-quinolina-1,4(1,3)-dibenzenacyclohexaphane-4^4-carbonitrile] |  | ≤ 10

Further lines, results first:

IC50 (T24/83 cells) [nM] | IC50 [1] [nM] | SMILES
50 to 500 | 10 to 100 | Cn1cncc1C1(O)c2ccc(Cl)c(c2)OCCc2cccc(c2)-c2cc(=O)n(C)c3ccc1cc23 (stereo not drawn) [Compound 26, 4^4-chloro-3-hydroxy-2^1-methyl-3-(1-methyl-1H-imidazol-5-yl)-2^1,2^2-dihydro-5-oxa-2(4,6)-quinolina-1,4(1,3)-dibenzenacycloheptaphan-2^2-one]
≤ 50 | ≤ 10 | Cn1cncc1C1(O)c2cccc(c2)COc2cccc(c2)-c2cc(=O)n(C)c3ccc1cc23 (stereo not drawn) [Compound 42, 3-hydroxy-2^1-methyl-3-(1-methyl-1H-imidazol-5-yl)-2^1,2^2-dihydro-6-oxa-2(4,6)-quinolina-1,4(1,3)-dibenzenacyclohexaphan-2^2-one]
50 to 500 | ≤ 10 | [2H]C([2H])([2H])n1c(=O)cc2c3cc(ccc31)C(O)(c1cncn1C)c1cnc(C#N)c(c1)COc1cccc-2c1 (stereo not drawn) [Compound 61, 3-hydroxy-2^1-(methyl-d3)-3-(1-methyl-1H-imidazol-5-yl)-2^2-oxo-2^1,2^2-dihydro-6-oxa-2(4,6)-quinolina-4(3,5)-pyridina-1(1,3)-benzenacyclohexaphane-4^6-carbonitrile]
≤ 50 | ≤ 10 | Cn1cncc1C1(O)c2cccc(c2)OCCc2cccc(c2)-c2cc(=O)n(C)c3ccc1cc23 (stereo not drawn) [Compound 23, 3-hydroxy-2^1-methyl-3-(1-methyl-1H-imidazol-5-yl)-2^1,2^2-dihydro-5-oxa-2(4,6)-quinolina-1,4(1,3)-dibenzenacycloheptaphan-2^2-one]
> 500 | ≤ 10 | [2H]C([2H])([2H])n1c(=O)cc2c3cc(ccc31)C(N)(c1cncn1C)c1cnc(C#N)c(c1)COc1cccc-2c1 (stereo not drawn) [Compound 62, 3-amino-2^1-(methyl-d3)-3-(1-methyl-1H-imidazol-5-yl)-2^2-oxo-2^1,2^2-dihydro-6-oxa-2(4,6)-quinolina-4(3,5)-pyridina-1(1,3)-benzenacyclohexaphane-4^6-carbonitrile]
50 to 500 | > 100 | COc1cc2c3cc(ccc3n1)C(O)(c1cncn1C)c1cccc(c1)COc1cccc-2c1 (stereo not drawn) [Compound 40, 2^2-methoxy-3-(1-methyl-1H-imidazol-5-yl)-6-oxa-2(4,6)-quinolina-1,4(1,3)-dibenzenacyclohexaphan-3-ol]
> 500 | ≤ 10 | Cn1cncc1C1(O)c2cccc(c2)OCc2cccc(c2)-c2cc(=O)n(C)c3ccc1cc23 (stereo not drawn) [Compound 11, 3-hydroxy-2^1-methyl-3-(1-methyl-1H-imidazol-5-yl)-2^1,2^2-dihydro-5-oxa-2(4,6)-quinolina-1,4(1,3)-dibenzenacyclohexaphan-2^2-one]
50 to 500 | 10 to 100 | Cn1cncc1C1(O)c2cccc(c2)COc2cccc(c2)-c2cc(=O)[nH]c3ccc1cc23 (stereo not drawn) [Compound 41, 3-hydroxy-3-(1-methyl-1H-imidazol-5-yl)-2^1,2^2-dihydro-6-oxa-2(4,6)-quinolina-1,4(1,3)-dibenzenacyclohexaphan-2^2-one]
> 500 | > 100 | COc1cc2c3cc(ccc3n1)C(O)(c1cncn1C)c1ccc(Cl)c(c1)OCCc1cccc-2c1 (stereo not drawn) [Compound 24, 4^4-chloro-2^2-methoxy-3-(1-methyl-1H-imidazol-5-yl)-5-oxa-2(4,6)-quinolina-1,4(1,3)-dibenzenacycloheptaphan-3-ol]
 | > 100 | [2H]C([2H])([2H])n1c(=O)cc2c3cc(ccc31)[C@](N)(c1nncn1C)c1ccc(Cl)c(c1)OCCc1cccc-2c1 (racemic) [(R)-34, (R)-3-amino-4^4-chloro-2^1-(methyl-d3)-3-(4-methyl-4H-1,2,4-triazol-3-yl)-2^1,2^2_ dihydro-5-oxa-2(4,6)-quinolina-1,4(1,3)-dibenzenacycloheptaphan-2^2-one]
 | ≤ 10 | CNC1(c2nncn2C)c2ccc(Cl)c(c2)COc2cccc(c2)-c2cc(=O)n(C)c3ccc1cc23 (stereo not drawn) [Compound 50, 4^4-chloro-2^1-methyl-3-(4-methyl-4H-1,2,4-triazol-3-yl)-3-(methylamino)-2^1,2^2-dihydro-6-oxa-2(4,6)-quinolina-1,4(1,3)-dibenzenacyclohexaphan-2^2-one]
 | > 100 | [2H]C([2H])([2H])n1c(=O)cc2c3cc(ccc31)[C@](N)(c1cncn1C)c1ccc(C#N)c(c1)OCc1cccc-2c1 (racemic) [(R)-20, (R)-3-amino-2^1-(methyl-d3)-3-(1-methyl-1H-imidazol-5-yl)-2^2-oxo-2^1,2^2-dihydro-5-oxa-2(4,6)-quinolina-1,4(1,3)-dibenzenacyclohexaphane-4^4-carbonitrile]
